Data as given in paper PMC5972026 (Journal of medicinal chemistry, 2017).
“Also recorded” adds a separate entry of the source. Counter-ions that a name gives are not always drawn.

Columns and labels:
[1] = biological target: A/M2 wt channel (A/Udorn/72) (Influenza A virus, UniProt P0DOF5); assay: cell-based; type: cell-based
[2] = tested on: A/HK/7/87 virus (H3N2 subtype), wt M2; type: cell-based, influenza A virus
[3] = tested on: A/HK/7/87 virus (H3N2 subtype), wt M2; type: cell-based, influenza A virus; remark: listed apart in the source
MDCK cells = settings: 100 μM

Sequence of A/M2 wt channel (A/Udorn/72) (P0DOF5 whole entry, looked up): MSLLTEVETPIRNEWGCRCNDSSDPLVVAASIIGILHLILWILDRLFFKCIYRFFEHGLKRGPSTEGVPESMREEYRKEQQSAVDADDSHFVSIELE

SMILES | Binding behaviour [1] | Reversibility of inhibition [1] | inhibition at 100 µM ([1]; read-out: Inhibition after 6 min of treatment, 100 μM, 6 min) [%] | Antiviral activity in the PRA [2] | Antiviral activity confirmed in virus yield assay [3] | Cytotoxicity at highest concentration tested (MDCK cells) | Time after which compound dissociated from the channel [1] [min]
C1CCC(C23CC4CC(CC(C4)C2)C3)NC1 (stereo not drawn) [Compound 8, 2-(1-adamantyl)piperidine hydrochloride] | strong binders; also recorded: very slow but strong binding | essentially irreversible | > 90 | active | confirmed | devoid of cytotoxicity | –
Cl.OC1(CC2CCNCC2)C2CC3CC(C2)CC1C3 (stereo not drawn) [Compound 15, 2-(piperidin-4-ylmethyl)adamantan-2-ol hydrochloride] | – | – | – | active | – | – | –
N=C(N)N1CCC(C=C2C3CC4CC(C3)CC2C4)CC1 [Compound 19, 4-[(adamantan-2-ylidene)methyl]piperidine-1-carboximidamide hydrochloride] | weak binding affinity | – | – | did not display antiviral activity | – | – | –
N=C(N)N1CCC(C23CC4CC(CC(C4)C2)C3)CC1 [Compound 7, N-amidyl-4-(1-adamantyl)piperidine hydrochloride] | weak binding affinity; also recorded: fast and weak binder | – | – | did not display antiviral activity | – | – | 5
N=C(N)N1CCC(CC2C3CC4CC(C3)CC2C4)CC1 (stereo not drawn) [Compound 20, 4-[(adamantan-2-yl)methyl]piperidine-1-carboximidamide hydrochloride] | weak binding affinity | – | – | did not display antiviral activity | – | – | –
C1CC(C23CC4CC(CC(C4)C2)C3)CCN1 [Compound 2, 4-(1-adamantyl)piperidine hydrochloride] | strong binder | essentially irreversible | – | active | confirmed | – | –
